Values of other authors, collected in US10561609B2, “Antiviral compositions” (The University of Liverpool, priority 2010, dated 2020).
Counter-ions that a name gives are not always drawn.

Conditions: according to M. Fardis and R. Oliyai; same value restated in g/L

- water solubility: 13.4 g/L
Compound: CC(C)OC(=O)OCOP(=O)(CO[C@H](C)Cn1cnc2c(N)ncnc21)OCOC(=O)OC(C)C [tenofovir disoproxil fumarate]
